Measurements from patent US6935334B2, “Enhancing therapeutic effectiveness of nitric oxide inhalation” (The General Hospital Corporation, priority 2000, dated 2005).

How the values were obtained:
[1] = tested on: isolated-perfused mouse lungs preconstricted with U46619; assay: Pulmonary vasodilator response to NO inhalation in isolated, perfused and ventilated mouse lungs preconstricted with U46619; assay type: in vivo; details: for impairment of responsiveness to NO inhalation: wild-type mice treated with endotoxin, scavengers of reactive oxygen and nitrogen species; for vasodilator response to NO inhalation, compared to that in control mice: endotoxin-challenged (LPS 50 mg/kg i.p.) wild-type mice treated with NAC 150 mg/kg i.p. immediately and 3.5 hours later, lungs isolated 16 hours after endotoxin
Description: Isolated, Perfused, and Ventilated Mouse Lung Model Mice were killed by intraperitoneal injection of pentobarbital sodium (200 mg/kg body weight) and placed in a 37° C. water-jacketed chamber (Isolated Perfused Lung Size 1 Type 839; Hugo-Sachs Elektronik, March-Hugstetten, Germany). The trachea was isolated and intubated, and the lungs were ventilated with 21% O2, 6% CO2 and 73% N2 using a volume-controlled ventilator (model 687; Harvard Apparatus, South Natick, Mass.) at a ventilatory rate of 85 breaths/min and 2 cm H2O end-expiratory pressure. The tidal volume was adjusted to provide a peak inspiratory pressure of 10 cm H2O throughout each study. The lungs were exposed via a midline sternotomy, and a ligataure was placaed around the aorticopulmonary outflow tract. After injection of 10 IU heparin into the right ventricle, the pulmonary artery was cannulated with a stainless steel cannula (1 mm ID) via the right ventricle. The pulmonary venous effluent was drained via a stainless steel cannula (1 mm ID) placed through the apex of the left ventricle across the mitral valve and into the left atrium. Left atrial pressure was maintained at 2 mmHg. Lungs were perfused at a constant flow (50 ml. kg body weight^−1. min^−1; Ismatec Reglo-Analogue roller pump; Laboratoriumstechnik GmbH, Wertheim-Mondfeld, Germany) with a non-recirculating system at 37° C. The perfusate used was Hanks' Balanced Salt Solution (GibcoBRL, Grand Island, N.Y.) containing 1.26 mM CaCl2, 5.33 mM KCl, 0.44 mM KH2PO4, 0.50 mM MgCl2, 0.41 mM MgSO4, 138.0 mM NaCl, 4.0 mM NaHCO3, 0.3 mM Na2HPO4, and 5.6 mM glucose. Bovine serum albumin, 5%, and dextran, 5% (both from Sigma Chemical Co., St. Louis, Mo.), were added to the perfusate to prevent pulmonary edema, in the isolated, perfused, and ventilated rat lung, essentially as described in Holzmann et al., 1996, Am. J. Physiol. 271:L981-L986. Indomethacin, […] (Sigma Chemical Co.), and 1 mM L-NAME (Sigma Chemical Co.) were added to the perfusate to inhibit endogenous prostaglandin and NO synthesis, respectively. Sodium bicarbonate was added to adjust the perfusate pH to 7.34-7.43.
Pulmonary artery pressure (PAP) and left atrial pressure were measured via saline-filled membrane pressure transducers (Argon, Athens, Tex.) connected to a side port of the inflow and outflow cannulae, respectively. Airway pressure (Paw) was measured using a differential pressure transducer (model MP-45-32-871; Validyne Engineering Corp., Northridge, Calif.) connected to the inspiratory limb just before the Y piece. Pressure transducers were connected to a biomedical amplifier (Hewlett Packard 7754B, Andover, Mass.), and data were recorded at 150 Hz on a personal computer using an analog-to-digital interface with a data acquisition system (DI-220; Dataq Instruments, Akron, Ohio). The system was calibrated before each experiment.
For NO inhalation, NO gas (800 or 80 ppm NO in nitrogen, Airco, Murray Hill, N.J.) was blended (Oxygen Blender; Bird Corporation, Palm Springs, Calif.) with oxygen, carbon dioxide, and nitrogen to achieve a final concentration of 21% O2, 6% CO2, and the desired NO concentration. NO and higher oxidative states of NO (NOx; CLD 700 AL; Eco Physics, Dürmten, Switzerland), oxygen (Hudson Ventronics Ddivision, Temecula, Calif.), and carbon dioxide (Datex CO2 monitor; Puritan-Bennett Corpration, Los Angeles, Calif.) concentrations were monitored continuously.
Pulmonary Vascular Response to NO inhalation after Lipopolysaccharide Challenge Wild-type mice and NOS2-deficient mice were injected intraperitoneally with 50 mg/kg body weight Escherichia coli 0111:B4 lipopolysaccharide (LPS; Difco Laboratories, Detroit, Mich.) dissolved in saline 16 h before isolated lung perfusion. This time point was chosen based on previous studies in rats (Holzmann et al., 1996, Am. J. Physiol. 271:L981-L986). Untreated wild-type and NOS2-deficient mice served as controls. […]

[2] = tested on: hypoxic pulmonary vasoconstriction (HPV) in mice; assay: Change in incremental left pulmonary vascular resistance (ΔiLPV) in response to LMBO, a measure of HPV (Example 2, FIG. 8); assay type: in vivo, mouse
Description: We performed experiments on the change in incremental left pulmonary vascular resistance, ΔiLPV, in response to LMBO—a measure of HPV. HPV was impaired in wild-type mice challenged with endotoxin (FIG. 8). HPV was preserved in endotoxin-challenged mice treated with N-acetylcysteine at 500 mg/kg, but not 150 mg/kg (intraperitoneal administration simultaneously with endotoxin).

[3] = tested on: hypoxic pulmonary vasoconstriction (HPV) in mice; assay: Percent increase in left pulmonary vascular resistance (LPVR) after LMBO, one-lung hypoxia model (Example 3, FIG. 13); assay type: in vivo, mouse; details: endotoxin-challenged wild-type mice
Description: Wild-type (SV129B6/F1) mice and 5LO-deficient mice were anesthetized and studied at thoracotomy. Left pulmonary artery flow (QLPA) and pulmonary (PPA) and systemic (PSA) artery pressures were measured continuously.
HPV was assessed as the percent increase in left pulmonary vascular resistance (the slope of the P/Q-relationship, LPVR) after left main bronchus occlusion (LMBO). LMBO increased LPVR by 99±13% in 5LO deficient mice, and by 100±11% in wild-type mice.

[4] = tested on: pulmonary vasculature of wild-type mice; assay: Pulmonary vasoconstrictor response to intravenous angiotensin II; assay type: in vivo, mouse; details: for PVR: 5.0 μg/kg per minute angiotensin II
Description: Group 6: pulmonary vascular response to increasing doses of intravenous angiotensin II. SV129/B6F1 wild-type mice treated with endotoxin (n=5) or with saline (n=3) were studied 22 hours after the challenge.
Infusion of angiotensin II. Increasing doses of angiotensin II (0.05, 0.5, and 5.0 ng/g bw per minute) dissolved in sterile normal saline were infused via the central venous catheter using an infusion pump (Pump 11; Harvard Apparatus Co., South Natick, Mass.). PLA, PPA, PSA, and QLTAF were continuously measured.

Molecule: [Cl-].[Mn+3].[O-]c1ccccc1C=NCCN=Cc1ccccc1[O-] [EUK-8]
- impairment of responsiveness to NO inhalation [1]: prevented impairment of responsiveness to NO inhalation
- HPV (ΔiLPV in response to LMBO) ([2]; endotoxin-challenged mice treated with EUK-8): completely preserved

Molecule: CN(C)C(=O)CCSC(SCCC(=O)O)c1cccc(/C=C/c2ccc3ccc(Cl)cc3n2)c1 (stereo not drawn) [MK571]
- HPV (LMBO-induced increase in left PVR) [3]: preserved

Molecule: CC(C)c1ccc2c(c1)c(SC(C)(C)C)c(CC(C)(C)C(=O)O)n2Cc1ccc(Cl)cc1 [MK886]
- HPV (LMBO-induced increase in left PVR) [3]: preserved

Molecule: CC(=O)N[C@@H](CS)C(=O)O [N-acetylcysteine]
- vasodilator response to NO inhalation, compared to that in control mice ([1]; 0.4 ppm NO): 75±14%
- vasodilator response to NO inhalation, compared to that in control mice ([1]; 4.0 ppm NO): 103±15%
- vasodilator response to NO inhalation, compared to that in control mice ([1]; 40 ppm NO): 91±7%
- responsiveness to NO inhalation after prolonged NO exposure ([1]; endotoxin-challenged, NAC-treated mice exposed to 20 ppm NO for 16 hours): preserved
- lipopolysaccharide-induced attenuation of vasoreactivity to NO inhalation (FIG. 5) ([1]; two doses of 150 mg/kg i.p., simultaneously with lipopolysaccharide and 3.5 hours later): completely protected
- impairment of responsiveness to NO inhalation [1]: prevented impairment of responsiveness to NO inhalation
- HPV (ΔiLPV in response to LMBO) ([2]; endotoxin-challenged mice, 150 mg/kg intraperitoneally simultaneously with endotoxin): not
- HPV (ΔiLPV in response to LMBO) ([2]; endotoxin-challenged mice, 500 mg/kg intraperitoneally simultaneously with endotoxin): preserved
- HPV ([2]; endotoxin-challenged wild-type mice treated with N-acetylcysteine and exposed to 20 ppm NO for 22 hours): not impaired

Molecule: CNC(=O)NC [dimethylurea]
- impairment of responsiveness to NO inhalation [1]: prevented impairment of responsiveness to NO inhalation

Molecule: angiotensin II: vasoconstrictor infused intravenously to test pulmonary vascular contractile function (DRVYIHPF; Angiotensin-2; UniProt P01019 25-32, looked up)
- PVR ([4]; endotoxin-challenged wild-type mice, baseline 55±11): 174±40 mmHg·min·g·mL^−1
- PVR ([4]; saline-treated wild-type mice without endotoxin, baseline 74±24): 184±25 mmHg·min·g·mL−1
- PLA in response to angiotensin II infusion ([4]; saline-treated and endotoxin-treated wild-type mice (either group)): did not change

B1: catalase: scavenger of reactive oxygen and nitrogen species (anti-ROS agent) (protein, UniProt P04040 2-527, looked up)
Catalase: ADSRDPASDQMQHWKEQRAAQKADVLTTGAGNPVGDKLNVITVGPRGPLLVQDVVFTDEMAHFDRERIPERVVHAKGAGAFGYFEVTHDITKYSKAKVFEHIGKKTPIAVRFSTVAGESGSADTVRDPRGFAVKFYTEDGNWDLVGNNTPIFFIRDPILFPSFIHSQKRNPQTHLKDPDMVWDFWSLRPESLHQVSFLFSDRGIPDGHRHMNGYGSHTFKLVNANGEAVYCKFHYKTDQGIKNLSVEDAARLSQEDPDYGIRDLFNAIATGKYPSWTFYIQVMTFNQAETFPFNPFDLTKVWPHKDYPLIPVGKLVLNRNPVNYFAEVEQIAFDPSNMPPGIEASPDKMLQGRLFAYPDTHRHRLGPNYLHIPVNCPYRARVANYQRDGPMCMQDNQGGAPNYYPNSFGAPEQQPSALEHSIQYSGEVRRFNTANDDNVTQVRAFYVNVLNEEQRKRLCENIAGHLKDAQIFIQKKAVKNFTEVHPDYGSHIQALLDKYNAEKPKNAIHTFVQSGSHLAAREKANL
- impairment of responsiveness to NO inhalation [1]: prevented impairment of responsiveness to NO inhalation
